Source: patent US20100056524A1, “Compound” (priority 2008, published 2010)
Structures can show the parent of a compound that is named as a salt.

What was measured:
JNK1 = biological target: T1, JNK1 (Homo sapiens, UniProt P45983); experiment: JNK1 protein kinase assay; format: biochemical; settings: JNK1, 20 μM ATP, read-out: residual kinase activity; for remaining activity at 1 µM: 1 μM compound; for remaining activity at 10 µM: 10 μM compound
T1 construct: All protein kinases were of human origin and encoded full length proteins, unless indicated otherwise; made in house
T1 sequence (P45983 1-384 isoform P45983-2): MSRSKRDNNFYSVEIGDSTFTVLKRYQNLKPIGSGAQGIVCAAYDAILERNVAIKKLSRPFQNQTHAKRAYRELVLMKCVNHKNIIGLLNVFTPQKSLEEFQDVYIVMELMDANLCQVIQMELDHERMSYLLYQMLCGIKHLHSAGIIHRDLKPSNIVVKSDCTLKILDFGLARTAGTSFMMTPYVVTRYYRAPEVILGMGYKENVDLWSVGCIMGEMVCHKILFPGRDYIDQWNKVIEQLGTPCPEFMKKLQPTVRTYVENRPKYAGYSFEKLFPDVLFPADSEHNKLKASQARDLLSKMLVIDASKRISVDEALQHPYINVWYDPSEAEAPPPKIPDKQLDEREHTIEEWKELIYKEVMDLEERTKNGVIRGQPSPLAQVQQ
Source text: (§1) All protein kinases were of human origin and encoded full length proteins, unless indicated otherwise. They were either expressed as glutathione S-transferase (GST) fusion proteins in Escherichia Coli or as hexahistidine (His6)-tagged proteins in insect Sf21 cells. GST fusion proteins were purified by affinity chromatography on glutathione-Sepharose, and His6-tagged proteins on nickel/nitriloacetate-agarose. The procedures for expressing some of the protein kinases used herein have been detailed previously.^8,9 The following sections outline the DNA vectors synthesised and the procedures used to express and purifying protein kinases that have not been reported previously.
In order to produce activated forms of Aurora B and Aurora C, insect Sf21 cells were incubated for 1 h with the protein phosphatase inhibitor okadaic acid (50 nM). JNK isoforms were activated with MKK4 and MKK7, MNK2 with p38α MAPkinase; PKBα, PKBβ, with PDK1, and ERK1 with MKK1. To activate CDK2, bacterial pellets expressing cyclin A2 and CDK2 were mixed together, lyse and purified on glutathione Sepharose. The GST-tags were removed by cleavage with PreScission protease and the CDK2-cyclin A2 complex purified by chromatography on SP-Sepharose. It was then activated with CAK1/CDK7 followed by chromatography on nickel-nitrilotriacetate agarose to remove CAK1/CDK7, which binds to this column by virtue of its C-terminal His6 tag. All the other protein kinases were active as expressed.
(§2) All assays (25.5 μl) were carried out at room temperature (21° C.) and were linear with respect to time and enzyme concentration under the conditions used. Assays were performed for 30 min using Multidrop Micro reagent dispensers (Thermo Electron Corporation, Waltham, Mass. 02454, USA) in a 96-well format. The concentration of magnesium acetate in the assays was 10 mM and the [γ-33P] ATP (800 cpm/pmol) was used at 5, 20 or 50 μM as indicated, in order to be at or below the Km for ATP for each enzyme. Protein kinases assayed at 5 μM ATP were: —ERK1, ERK8, PKBα, MARK3, Aurora C. Protein kinases assayed at 20 μM ATP were: —JNK1, PDK1, CHK1, CHK2, CDK2 and Aurora B. Protein kinases assayed at 50 μM ATP were: —MNK2, IKKepsilon and TBK1.
(§3) The assays were initiated with MgATP, stopped by addition of 5 μl of 0.5 M orthophosphoric acid and spotted on to P81 filterplates using a unifilter harvester (PerkinElmer, Boston, Mass. 02118, USA). The IC50 values of inhibitors were determined after carrying out assays at 10 different concentrations of each compound.
(§4) Unless stated otherwise, enzymes were diluted in 50 mM Tris/HCl pH 7.5, 0.1 mM EGTA, 1 mg/ml BSA, 0.1% (v/v) 2-mercaptoethanol and assayed in 50 mM Tris/HCl pH 7.5, 0.1 mM EGTA, 0.1% (v/v) 2-mercaptoethanol.

P38b MAPK = biological target: T2, P38b MAPK (Homo sapiens, UniProt Q15759); experiment: P38b MAPK protein kinase assay; format: biochemical; settings: P38b MAPK, read-out: residual kinase activity; for remaining activity at 1 µM: 1 μM compound; for remaining activity at 10 µM: 10 μM compound
T2 construct: All protein kinases were of human origin and encoded full length proteins, unless indicated otherwise; made in house
T2 sequence (Q15759 whole entry): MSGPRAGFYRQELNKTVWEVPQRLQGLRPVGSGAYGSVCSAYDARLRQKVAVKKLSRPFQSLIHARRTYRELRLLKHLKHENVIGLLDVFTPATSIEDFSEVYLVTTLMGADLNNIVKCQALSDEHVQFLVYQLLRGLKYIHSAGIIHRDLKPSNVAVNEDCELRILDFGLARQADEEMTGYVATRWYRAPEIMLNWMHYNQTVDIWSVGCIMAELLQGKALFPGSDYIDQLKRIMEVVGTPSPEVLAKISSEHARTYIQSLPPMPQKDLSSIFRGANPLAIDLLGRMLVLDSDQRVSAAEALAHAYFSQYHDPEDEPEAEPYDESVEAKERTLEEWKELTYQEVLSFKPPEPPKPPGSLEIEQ
Source text: as §1, §2, §3, §4

S6K1 = biological target: T3, S6K1 (Homo sapiens, UniProt P23443, T412E); experiment: S6K1 protein kinase assay; format: biochemical; settings: S6K1, read-out: residual kinase activity; for remaining activity at 1 µM: 1 μM compound; for remaining activity at 10 µM: 10 μM compound
T3 construct: All protein kinases were of human origin and encoded full length proteins, unless indicated otherwise; made in house
T3 sequence (P23443 1-421 T412E limits assumed): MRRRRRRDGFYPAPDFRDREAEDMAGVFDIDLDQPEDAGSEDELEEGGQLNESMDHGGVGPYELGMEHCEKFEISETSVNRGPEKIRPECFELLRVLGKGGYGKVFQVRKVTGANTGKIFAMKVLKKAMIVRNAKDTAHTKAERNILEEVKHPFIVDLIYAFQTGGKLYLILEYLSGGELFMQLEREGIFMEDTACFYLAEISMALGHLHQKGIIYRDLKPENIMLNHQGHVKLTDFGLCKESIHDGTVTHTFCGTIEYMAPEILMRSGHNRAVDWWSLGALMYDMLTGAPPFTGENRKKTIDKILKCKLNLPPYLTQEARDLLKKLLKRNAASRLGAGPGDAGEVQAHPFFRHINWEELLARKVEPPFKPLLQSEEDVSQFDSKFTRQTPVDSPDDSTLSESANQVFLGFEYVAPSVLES
Source text: as §1, §2, §3, §4

PKA = biological target: T4, PKA (Homo sapiens, UniProt P17612); experiment: PKA protein kinase assay; format: biochemical; settings: PKA, read-out: residual kinase activity; for remaining activity at 1 µM: 1 μM compound; for remaining activity at 10 µM: 10 μM compound
T4 construct: All protein kinases were of human origin and encoded full length proteins, unless indicated otherwise; made in house
Source text: as §1, §2, §3, §4

MSK1 = biological target: T5, MSK1 (Homo sapiens, UniProt O75582); experiment: MSK1 protein kinase assay; format: biochemical; settings: MSK1, read-out: residual kinase activity; for remaining activity at 1 µM: 1 μM compound; for remaining activity at 10 µM: 10 μM compound
T5 construct: All protein kinases were of human origin and encoded full length proteins, unless indicated otherwise; made in house
T5 sequence (O75582 whole entry): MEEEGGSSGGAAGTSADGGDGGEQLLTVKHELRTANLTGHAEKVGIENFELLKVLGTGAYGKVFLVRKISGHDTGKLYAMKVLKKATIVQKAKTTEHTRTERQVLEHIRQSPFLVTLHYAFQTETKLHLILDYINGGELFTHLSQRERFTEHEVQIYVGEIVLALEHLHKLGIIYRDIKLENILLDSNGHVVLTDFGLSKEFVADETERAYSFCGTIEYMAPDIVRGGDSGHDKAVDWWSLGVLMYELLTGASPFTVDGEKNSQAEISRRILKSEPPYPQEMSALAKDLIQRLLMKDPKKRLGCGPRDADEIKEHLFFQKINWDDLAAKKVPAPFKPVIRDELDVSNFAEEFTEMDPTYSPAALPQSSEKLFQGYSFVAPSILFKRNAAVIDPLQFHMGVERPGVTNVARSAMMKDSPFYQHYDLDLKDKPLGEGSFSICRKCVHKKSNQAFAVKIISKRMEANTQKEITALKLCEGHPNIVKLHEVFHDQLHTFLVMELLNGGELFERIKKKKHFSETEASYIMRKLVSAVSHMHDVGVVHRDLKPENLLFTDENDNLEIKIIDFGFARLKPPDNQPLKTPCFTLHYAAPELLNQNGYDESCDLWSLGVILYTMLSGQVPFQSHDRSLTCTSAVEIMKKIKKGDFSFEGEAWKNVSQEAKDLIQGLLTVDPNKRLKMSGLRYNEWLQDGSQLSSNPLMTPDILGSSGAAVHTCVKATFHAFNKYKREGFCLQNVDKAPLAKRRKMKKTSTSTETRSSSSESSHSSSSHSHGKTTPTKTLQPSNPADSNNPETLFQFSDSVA
Source text: as §1, §2, §3, §4

MNK1 = biological target: T6, MNK1 (Homo sapiens, UniProt Q9BUB5); experiment: MNK1 protein kinase assay; format: biochemical; settings: MNK1, read-out: residual kinase activity; for remaining activity at 1 µM: 1 μM compound; for remaining activity at 10 µM: 10 μM compound
T6 construct: All protein kinases were of human origin and encoded full length proteins, unless indicated otherwise; made in house
T6 sequence (Q9BUB5 whole entry): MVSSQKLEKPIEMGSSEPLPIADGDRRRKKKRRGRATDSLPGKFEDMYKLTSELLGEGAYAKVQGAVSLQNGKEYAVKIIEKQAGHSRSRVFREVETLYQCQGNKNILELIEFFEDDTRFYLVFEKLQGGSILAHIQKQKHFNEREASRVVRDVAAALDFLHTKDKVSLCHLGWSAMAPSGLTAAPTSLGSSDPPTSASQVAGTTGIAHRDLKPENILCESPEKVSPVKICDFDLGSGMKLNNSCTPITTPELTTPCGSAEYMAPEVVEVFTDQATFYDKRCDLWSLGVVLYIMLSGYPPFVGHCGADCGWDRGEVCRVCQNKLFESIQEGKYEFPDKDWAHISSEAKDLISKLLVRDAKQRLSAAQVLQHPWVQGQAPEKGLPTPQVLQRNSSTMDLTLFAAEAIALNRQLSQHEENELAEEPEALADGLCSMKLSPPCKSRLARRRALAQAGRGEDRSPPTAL
Source text: as §1, §2, §3, §4

PHK = PHK protein kinase assay; format: biochemical, human; settings: PHK
Source text: as §1, §2, §3, §4

CHK2 = biological target: T7, CHK2 (Homo sapiens, UniProt O96017); experiment: CHK2 protein kinase assay; format: biochemical; settings: CHK2, 20 μM ATP, read-out: residual kinase activity; for remaining activity at 1 µM: 1 μM compound; for remaining activity at 10 µM: 10 μM compound
T7 construct: The following proteins were expressed in E. coli: —CHK2[5-543]; GST; made in house; host or cells: E. coli
T7 sequence (O96017 5-543): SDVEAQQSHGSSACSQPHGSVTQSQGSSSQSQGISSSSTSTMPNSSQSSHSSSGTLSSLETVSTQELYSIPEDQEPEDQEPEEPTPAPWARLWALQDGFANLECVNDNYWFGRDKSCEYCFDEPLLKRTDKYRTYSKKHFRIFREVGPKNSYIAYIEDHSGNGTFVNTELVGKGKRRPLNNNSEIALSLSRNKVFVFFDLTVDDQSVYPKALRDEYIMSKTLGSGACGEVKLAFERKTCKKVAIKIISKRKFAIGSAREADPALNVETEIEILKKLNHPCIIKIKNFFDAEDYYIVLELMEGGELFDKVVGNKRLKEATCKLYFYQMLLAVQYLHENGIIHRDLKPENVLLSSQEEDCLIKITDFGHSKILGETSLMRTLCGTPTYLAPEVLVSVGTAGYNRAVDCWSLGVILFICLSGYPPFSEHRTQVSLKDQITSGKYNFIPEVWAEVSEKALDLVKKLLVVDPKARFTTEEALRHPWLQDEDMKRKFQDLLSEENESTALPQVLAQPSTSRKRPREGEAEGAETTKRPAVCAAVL
Source text: as §1
The following proteins were expressed in E. coli: —CHK2[5-543], cyclin-dependent protein kinase 2 (CDK2), MAP kinase-interacting kinase 2 (MNK2), extra-cellular signal-regulated kinase 1 (ERK1).
as §2, §3, §4

CK2 = CK2 protein kinase assay; format: biochemical, human; settings: CK2
Source text: as §1, §2, §3, §4

PIM1 = biological target: T8, PIM1 (Homo sapiens, UniProt P11309); experiment: PIM1 protein kinase assay; format: biochemical; settings: PIM1, read-out: residual kinase activity; for remaining activity at 1 µM: 1 μM compound; for remaining activity at 10 µM: 10 μM compound
T8 construct: All protein kinases were of human origin and encoded full length proteins, unless indicated otherwise; made in house
T8 sequence (P11309 whole entry): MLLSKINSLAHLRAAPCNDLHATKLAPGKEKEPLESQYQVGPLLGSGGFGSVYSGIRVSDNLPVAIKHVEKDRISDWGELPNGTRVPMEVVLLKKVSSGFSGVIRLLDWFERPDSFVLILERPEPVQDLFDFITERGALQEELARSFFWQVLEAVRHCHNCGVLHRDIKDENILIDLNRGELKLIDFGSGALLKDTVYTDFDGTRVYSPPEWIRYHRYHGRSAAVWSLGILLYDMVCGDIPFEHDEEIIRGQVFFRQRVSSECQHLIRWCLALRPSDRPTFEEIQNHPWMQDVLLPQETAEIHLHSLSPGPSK
Source text: as §1, §2, §3, §4

HIPK2 = biological target: T9, HIPK2 (Homo sapiens, UniProt Q9H2X6); experiment: HIPK2 protein kinase assay; format: biochemical; settings: HIPK2, read-out: residual kinase activity; for remaining activity at 1 µM: 1 μM compound; for remaining activity at 10 µM: 10 μM compound
T9 construct: All protein kinases were of human origin and encoded full length proteins, unless indicated otherwise; made in house
T9 sequence (Q9H2X6 165-564 limits assumed): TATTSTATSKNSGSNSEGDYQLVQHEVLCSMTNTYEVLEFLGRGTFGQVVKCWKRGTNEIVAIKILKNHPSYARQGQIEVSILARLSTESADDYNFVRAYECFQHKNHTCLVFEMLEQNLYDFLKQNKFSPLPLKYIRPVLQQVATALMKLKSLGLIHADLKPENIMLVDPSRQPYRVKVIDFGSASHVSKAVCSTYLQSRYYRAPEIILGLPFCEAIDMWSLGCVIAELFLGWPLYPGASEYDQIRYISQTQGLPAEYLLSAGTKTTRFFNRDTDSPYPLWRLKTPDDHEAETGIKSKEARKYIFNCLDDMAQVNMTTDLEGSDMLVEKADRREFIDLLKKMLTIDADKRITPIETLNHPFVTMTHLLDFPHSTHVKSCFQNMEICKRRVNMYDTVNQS
Source text: as §1, §2, §3, §4

PKBb = PKBb (Homo sapiens, UniProt P31751, S474D); experiment: PKBb protein kinase assay; settings: read-out: residual kinase activity
Sequence of PKBb (P31751 120-481 S474D): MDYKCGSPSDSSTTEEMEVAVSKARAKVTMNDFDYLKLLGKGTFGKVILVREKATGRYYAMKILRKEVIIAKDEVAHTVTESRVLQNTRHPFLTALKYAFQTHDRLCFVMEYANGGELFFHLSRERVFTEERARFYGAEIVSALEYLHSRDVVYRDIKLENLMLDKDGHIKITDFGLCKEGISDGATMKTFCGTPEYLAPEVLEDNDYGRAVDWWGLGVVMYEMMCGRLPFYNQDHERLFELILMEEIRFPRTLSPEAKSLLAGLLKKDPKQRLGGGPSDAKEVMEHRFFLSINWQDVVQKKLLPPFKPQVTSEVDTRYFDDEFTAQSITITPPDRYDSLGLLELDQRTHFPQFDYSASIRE

| SMILES | remaining activity at 1 µM (JNK1) [%] | remaining activity at 10 µM (JNK1) [%] | remaining activity at 1 µM (P38b MAPK) [%] | remaining activity at 10 µM (P38b MAPK) [%] | remaining activity at 1 µM (S6K1) [%] | remaining activity at 10 µM (S6K1) [%] | remaining activity at 1 µM (PKA) [%] | remaining activity at 10 µM (PKA) [%] | remaining activity at 1 µM (MSK1) [%] | remaining activity at 10 µM (MSK1) [%] | remaining activity at 1 µM (MNK1) [%] | remaining activity at 10 µM (MNK1) [%] | residual kinase activity (PHK; 1 μM compound) [%] | residual kinase activity (PHK; 10 μM compound) [%] | remaining activity at 1 µM (CHK2) [%] | remaining activity at 10 µM (CHK2) [%] | residual kinase activity (CK2; 1 μM compound) [%] | residual kinase activity (CK2; 10 μM compound) [%] | remaining activity at 1 µM (PIM1) [%] | remaining activity at 10 µM (PIM1) [%] | other results |
| --- | --- | --- | --- | --- | --- | --- | --- | --- | --- | --- | --- | --- | --- | --- | --- | --- | --- | --- | --- | --- | --- |
| O=C(NCCCNc1nc(Nc2cccc(N3CCCC3=O)c2)ncc1C1CC1)c1cccs1 [Example 47, Thiophene-2-carboxylic acid (3-{5-cyclopropyl-2-[3-(2-oxo-pyrrolidin-1-yl)-phenylamino]-pyrimidin-4-ylamino}-propyl)-amide. Hydrochloride salt] | 92 | 86 | 99 | 90 | 63 | 30 | 96 | 80 | 61 | 54 | 93 | 73 | 78 | 24 | 71 | 28 | 80 | 78 | 82 | 57 | remaining activity at 1 µM (HIPK2): 88%; remaining activity at 10 µM (HIPK2): 67%; remaining activity at 1 µM (PKBb): 117%; remaining activity at 10 µM (PKBb): 97% |
| O=C(NCCCNc1nc(Nc2cccnc2)ncc1C1CC1)c1cccs1 [Example 50, Thiophene-2-carboxylic acid {3-[5-cyclopropyl-2-(pyridin-3-ylamino)-pyrimidin-4-ylamino]-propyl}-amide] | 94 | 87 | 99 | 89 | 63 | 30 | 91 | 80 | 77 | 70 | 94 | 81 | 64 | 15 | 52 | 16 | 72 | 80 | 63 | 92 | remaining activity at 1 µM (HIPK2): 83%; remaining activity at 10 µM (HIPK2): 54%; remaining activity at 1 µM (PKBb): 116%; remaining activity at 10 µM (PKBb): 107% |
